In one assay the test system is H1299 (NSCLC) cell line. Description: Cancer cell cytotoxicity assay (Calcein AM / Cell Titer-Glo), H1299. Type of assay: cell-based, human. On the procedure: (§1) Compounds of the invention and comparative compounds were assayed in three cancer cell lines to confirm cytotoxic activity and to set a range of concentrations to use in subsequent assays. All cell lines were maintained in RPMI medium 1640 supplemented with 10% (wt/vol) fetal bovine serum and penicillin-streptomycin (100 units/ml and 100 μg/ml). Cells were routinely checked for microbial or mycoplasma contamination and if necessary replaced. Cells were harvested by trypsinization using 0.25% trypsin and 0.1% EDTA and then counted in a ViCell XR coulter counter in duplicate, before and after dilution for assay plating. Between four to nine different types of human cancer cells were plated at a density of 10,000-15,000 cells per well of each 96-well black tissue culture treated microtiter plate, then were grown for 1 hour at 37° C. with 5% CO2/95% air in a humidified incubator to allow cells to attach before compound addition. Compound stocks (100×) were prepared in 96-well V-bottom polypropylene microtiter plates. Five serial (1:2) dilutions were made with anhydrous DMSO at 100× the final concentration used in the assay. The individual wells in compound-containing […] well plates were diluted 1:10 with complete cell culture medium and the 10× (10 μL) stocks were added to 90 μl of cells in each plate to ensure full mixing of stocks with culture media by using a Biomek FX liquid handler with 96-well head. Doxorubicin was used as the control to monitor the behavior of each cell line. Cells were incubated with the compounds for 3 to 4 days before fluorescence and luminescence reading. Test plates were removed from the incubator and washed once in sterile PBS to remove serum containing calcium esterases. Calcein AM (acetoxymethyl ester) reagent was added and the cells were incubated for 30 min at 37° C. Plates were read for emission by using a fluorescein filter (excitation 485 nm, emission 535 nm). An equal volume (30 μL) of Cell Titer-Glo reagent (Promega Corporation, Inc.) was added and incubated for 10 min at room temperature with gentle agitation to lyse the cells. Each plate was re-read for luminescence to confirm the inhibition observed in the fluorescent […] assay as a measure of cell viability. The cancer cell cytotoxicity assays were run in triplicate using ≧5 different drug concentrations, and the data were analyzed to establish statistical significance and a valid IC50 value for inhibition of cell growth, based on ≧2 log differences in drug effect.
(§2) The cancer cell cytotoxicities (determined substantially according to the method of Example 5) of various compounds of the invention and comparative compounds as determined in four to five different human cancer cell lines are shown in Table 1. The structures of the compounds listed are found in FIGS. 2-4.

Assay [1] has as its system NCI-H460 (NSCLC) cell line. Description: Cancer cell cytotoxicity assay (Calcein AM / Cell Titer-Glo), NCI-H460. Type of assay: cell-based, human. On the procedure:
as §1, §2

Assay [2] concerns SKOV3 (Ovarian) cell line. Description: Cancer cell cytotoxicity assay (Calcein AM / Cell Titer-Glo), SKOV3. Type of assay: cell-based, human. On the procedure:
as §1, §2

A further assay has as its system A549 (NSCLC) cell line. Description: Cancer cell cytotoxicity assay (Calcein AM / Cell Titer-Glo), A549. It counts as cell-based, human. On the procedure: as §1, §2
Assay [3] concerns HT29 (Colorectal) cell line. Description: Cancer cell cytotoxicity assay (Calcein AM / Cell Titer-Glo), HT29. Type of assay: cell-based, human. On the procedure: as §1, §2
For a further assay, the system named is human cancer cell lines. Description: Cancer cell cytotoxicity, summary over four to five human cancer cell lines. Type of assay: cell-based. As to conditions: read-out: IC50 values (cancer cell cytotoxicity). On the procedure: as §1, §2
Setting [4] is: NSCLC, footnote 3: determined at same time as CEN07-117 and -121.
Setting [5] is: Ovarian, footnote 3: determined at same time as CEN07-117 and -121.
Setting [6] is: Colorectal, footnote 3: determined at same time as CEN07-117 and -121.
Where [7] appears, read: Ovarian, assay set not specified.
Where [8] appears, read: Colorectal, assay set not specified.

The term IC50 denotes the concentration that inhibits the measured activity by half.

As for `CON(C1CCC2(C)C(CCC3C2CC(O)C2(C)C(C4=CC(=O)OC4)CCC32O)C1)C1OCC(O)C(O)C1O` (stereo not shown) [CEN07-121], the IC50 with H1299 (NSCLC) cell line (setting [4]) is 430 nM; in assay [1] (setting [4]) it was 160 nM; in assay [2] (setting [5]), 300 nM; in the assay with A549 (NSCLC) cell line (setting [4]), 150 nM; in assay [3] (setting [6]), 230 nM.

Turning to `C[C@]12CCC(OC3OC[C@H](O)[C@@H](O)[C@@H]3O)C[C@H]1CCC1C2CC[C@]2(C)[C@@H](C3=CCOC3=O)CC[C@]12O` (stereo partly shown) [CEN08-193], the IC50 was 6 nM in the assay on H1299 (NSCLC) cell line (Homo sapiens, NCI-H1299, NSCLC, footnote 5: determined at same time as CEN08-193); 9 nM in assay [1] (Homo sapiens, NCI-H460, NSCLC, footnote 5: determined at same time as CEN08-193); less than 80 nM in the assay on human cancer cell lines; 51 nM in assay [2] (Homo sapiens, SK-OV-3, Ovarian, footnote 5: determined at same time as CEN08-193); 4 nM with A549 (NSCLC) cell line (Homo sapiens, A549, NSCLC, footnote 5: determined at same time as CEN08-193); 11 nM in assay [3] (Homo sapiens, HT-29, Colorectal, footnote 5: determined at same time as CEN08-193).

Take `CC12CCC(OC3OCC(O)C(O)C3O)C=C1CCC1C2CCC2(C)C(c3ccc(=O)oc3)CCC12O` (stereo not shown) [CEN08-192]: the concentration for half-maximal inhibition (IC50) in the assay with H1299 (NSCLC) cell line (NSCLC, assay set not specified) is 11 nM; in assay [1] (NSCLC, assay set not specified), 16 nM; in assay [2] (setting [7]), 72 nM; in the assay with A549 (NSCLC) cell line (NSCLC, assay set not specified), 8 nM; in assay [3] (setting [8]) it was 16 nM.

For `C[C@]12CC[C@H](O[C@H]3OC[C@H](O)[C@@H](O)C3O)C[C@H]1CCC1C2CC[C@]2(C)[C@@H](C3=CC(=O)OC3)CC[C@]12O` (stereo partly drawn) [CEN08-178, 3-O-digitoxigenin-L-riboside], the IC50 with H1299 (NSCLC) cell line (Homo sapiens, NCI-H1299, NSCLC, footnote 4: determined at same time as CEN08-177 and -178) was 50 nM; in assay [1] (Homo sapiens, NCI-H460, NSCLC, footnote 4: determined at same time as CEN08-177 and -178), 20 nM; in the assay with human cancer cell lines, less than 80 nM; in assay [2] (Homo sapiens, SK-OV-3, Ovarian, footnote 4: determined at same time as CEN08-177 and -178), 80 nM; in the assay with A549 (NSCLC) cell line (Homo sapiens, A549, NSCLC, footnote 4: determined at same time as CEN08-177 and -178), 20 nM; in assay [3] (Homo sapiens, HT-29, Colorectal, footnote 4: determined at same time as CEN08-177 and -178), 70 nM.

As for `CON(C1CCC2(C)C(CCC3C2CCC2(C)C(C4=CC(=O)OC4)CCC32O)C1)C1OCC(N)C(O)C1O` (stereo not shown) [CEN08-241], the concentration for half-maximal inhibition (IC50) in the assay with H1299 (NSCLC) cell line (NSCLC, assay set not specified) is 24 nM; in assay [1] (NSCLC, assay set not specified), 27 nM; in assay [2] (setting [7]) it was 74 nM; in the assay with A549 (NSCLC) cell line (NSCLC, assay set not specified) it was 20 nM.

For the compound `CC1OC(=O)C=C1C1CCC2(O)C3CCC4CC(OC5OCC(O)C(O)C5O)CCC4(C)C3CCC12C` (stereo not shown) [CEN08-245], the IC50 is 3700 nM in the assay on H1299 (NSCLC) cell line (NSCLC, assay set not specified); 2100 nM in assay [1] (NSCLC, assay set not specified); 3220 nM in assay [2] (setting [7]); 1290 nM in the assay on A549 (NSCLC) cell line (NSCLC, assay set not specified).

`CC12CCC(OC3OCC(O)C(O)C3O)C=C1CCC1C2CCC2(C)C(c3ccc(=O)oc3)CCC12O` (stereo not shown) [CEN08-190]: the half-inhibitory concentration (IC50) with H1299 (NSCLC) cell line (NSCLC, assay set not specified) was 4 nM; in assay [1] (NSCLC, assay set not specified), 6 nM; in assay [2] (setting [7]), 28 nM; in the assay with A549 (NSCLC) cell line (NSCLC, assay set not specified) it was 4 nM; in assay [3] (setting [8]), 6 nM.

Turning to `CON(C1C=C2CCC3C(CCC4(C)C(c5ccc(=O)oc5)CCC34O)C2(C)CC1)C1OC(CO)C(O)C(O)C1N` (stereo not shown) [CEN08-237], the IC50 in the assay with H1299 (NSCLC) cell line (NSCLC, assay set not specified) was 20 nM; in assay [1] (NSCLC, assay set not specified) it was 37 nM; in the assay on A549 (NSCLC) cell line (NSCLC, assay set not specified), 21 nM.

`CON(C1CCC2(C)C(CCC3C2CC(O)C2(C)C(C4=CC(=O)OC4)CCC32O)C1)C1OCC(O)C(O)C1O` (stereo not shown) [CEN07-117]: the IC50 in the assay on H1299 (NSCLC) cell line (setting [4]) is 500 nM; in assay [1] (setting [4]), 350 nM; in assay [2] (setting [5]) it was 550 nM; in the assay with A549 (NSCLC) cell line (setting [4]), 340 nM; in assay [3] (setting [6]) it was 440 nM.
